Results reported in PMC9102953, “New Derivatives of 5-Substituted Uracils: Potential Agents with a Wide Spectrum of Biological Activity” (Molecules, 2022).
Like-named read-outs stand apart in the source and are kept apart here.

What was measured:
[1] = test system: human cytomegalovirus (HCMV) strain Davis; assay: microbe, parasite or virus in culture; assay type: cell-based; details: Human betaherpesvirus 5, HEL, read-out: EC50, formation of viral plaques, cytomegalovirus strain Davis
[2] = test system: HEL299, Huh 7 and MDCK cells
HEL cells = assay: Change of cell morphology in HEL cells; assay type: cell-based, human
[3] = test system: varicella-zoster virus (VZV) strain TK−; assay: microbe, parasite or virus in culture; assay type: cell-based; details: Human alphaherpesvirus 3, HEL, read-out: EC50, formation of viral plaques, TK-varicella-zoster virus strain
a variety of RNA viruses = assay type: cell-based
HCoV-OC43 = assay: Antiviral cytopathicity assay, HCoV-OC43 in HEL 299 cells; assay type: cell-based
in vitro [4] = details: dog
[5] = test system: yellow fever virus (YFV) strain 17 D; assay: microbe, parasite or virus in culture; assay type: cell-based; details: Yellow fever virus, Huh-7, read-out: EC50 (μM) YFV 17D, Huh7
[6] = test system: respiratory syncytial virus (RSV) strain A Long; assay: microbe, parasite or virus in culture; assay type: cell-based; details: human respiratory syncytial virus, HEL 299, read-out: EC50 (μM) RSV A Long, HEL 299
[7] = test system: human cytomegalovirus (HCMV) strain AD-169; assay: microbe, parasite or virus in culture; assay type: cell-based; details: Human betaherpesvirus 5, AD169, HEL, read-out: EC50, formation of viral plaques, cytomegalovirus strain AD169
in vitro [8] = details: human
in vitro [9] = details: human; remark: listed apart in the source
[10] = Betacoronavirus 1, OC43, HEL 299, read-out: EC50 (μM) HCoV-OC43, HEL 299

| SMILES | EC50 [1] | cytotoxicity in the tested cell lines (in words) [2] | minimum concentration that leads to the detection of changes in cell morphology (HEL cells) | EC50 [3] | antiviral activity in the screening (in words) (a variety of RNA viruses) | EC50 (HCoV-OC43; Betacoronavirus 1, OC43, HEL 299 cells, reduction of virus-induced cytopathicity by 50%, read-out: EC50 (μM) HCoV-OC43, HEL 299) | CC50 (in vitro [4]) | EC50 [5] | EC50 [6] | EC50 [7] | EC50 (HCoV-OC43; [10]) | CC50 (in vitro [8]) | CC50 (in vitro [9]) |
| --- | --- | --- | --- | --- | --- | --- | --- | --- | --- | --- | --- | --- | --- |
| CC(C)(C)c1ccc(Nc2cn(C3C=CC(O)C3)c(=O)n(C3C=CC(O)C3)c2=O)cc1 (racemic) [(±)-4e, (±)-1-(1-(4′-hydroxycyclopent-2′-ene-1′-yl))-3-(4‴-hydroxycyclopent-2‴-en-1‴-yl)-5-((4″-tert-butyl)phenylamino)uracil] | 40.9 µM | marked cytotoxicity | greater than 100 μM | 48.9 µM | did not show any activity | > 100 µM | 19.5 µM | > 100 µM | > 100 µM | 76.5 µM |  |  |  |
| Cc1cc(C)cc(Oc2cn(C3C=CC(O)C3)c(=O)[nH]c2=O)c1 (racemic) [(±)-10a, (±)-1-(4′-Hydroxycyclopent-2′-en-1′-yl)-5-(3″,5″-dimethylphenoxy)uracil] |  | marked cytotoxicity |  |  | did not show any activity |  | 33.8 µM | > 100 µM | > 100 µM |  | > 100 µM | > 100 µM | > 100 µM |
| O=c1c(Oc2ccc(Cl)cc2)cn(C2C=CC(O)C2)c(=O)n1C1C=CC(O)C1 (racemic) [(±)-11c, (±)-1-(4′-hydroxycyclopent-2′-en-1′-yl)-3-(4‴-hydroxycyclopent-2‴-en-1‴-yl)-5-(4″-chlorophenoxy)uracil] |  | marked cytotoxicity |  |  | did not show any activity |  | 47.4 µM | > 100 µM | > 100 µM |  | > 100 µM | > 100 µM | > 100 µM |
